Reference: patent publication US20050070554A1, “Substituted heterocyclic compounds and methods of use” (Amgen Inc., priority 2003, published 2005)

What follows are compounds tested against T1, LCK (Homo sapiens, UniProt P06239) (assay: LCK-Homogeneous Time Resolved Fluorescent (HTRF) Kinase Assay). Details: not given.
T1 construct: LCK KD GST (225-509); GST
Format: biochemical
Description: LCK-Homogeneous Time Resolved Fluorescent (HTRF) Kinase Assay:
The LCK HTRF assay begins with LCK in the presence of ATP phosphorylating the biotinylated peptide Gastrin. The reaction incubates for 90 min. To quench the assay detection reagents are added which both stop the reaction by diluting out the enzyme and chelating the metals due to the presence of EDTA. Once the detection reagents are added the assay incubates for 30 min to allow for equilibration of the detection reagents.
Buffer conditions are as follows: 50 mM HEPES pH 7.5, 50 mM NaCl, 20 mM MgCl, 5 mM MnCl, 2 mM DTT, 0.05% BSA.
The assay is quenched and stopped with 160 μL of detection reagent. Detection reagents are as follows: Buffer made of 50 mM Tris, pH 7.5, 100 mM NaCl, 3 mM EDTA, 0.05% BSA, 0.1% Tween20.
The assay plate is read in either a Discovery or a RubyStar.

T1 sequence (P06239 225-509): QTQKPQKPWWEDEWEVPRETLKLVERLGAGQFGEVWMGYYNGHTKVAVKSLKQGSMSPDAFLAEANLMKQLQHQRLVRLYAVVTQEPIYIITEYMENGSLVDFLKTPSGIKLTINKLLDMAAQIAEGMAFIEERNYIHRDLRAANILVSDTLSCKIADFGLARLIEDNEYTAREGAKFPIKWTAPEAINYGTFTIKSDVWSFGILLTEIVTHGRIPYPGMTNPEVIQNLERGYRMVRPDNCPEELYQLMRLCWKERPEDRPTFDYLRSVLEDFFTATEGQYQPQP

IC50, < 1000 nM:
Cc1cccc(C)c1-n1c(=O)c2cnc(Nc3ccc(OCCCN4CCCCC4)cc3)nc2n2c3ccccc3nc12 [No. 32, 6-(2,6-dimethylphenyl)-2-((4-((3-(1-piperidinyl)-propyl)oxy)phenyl)amino)pyrimido[5′,4′:5,6]-pyrimido[1,2-a]benzimidazol-5(6H)-one]
CN1CCN(c2ccc(Nc3ncc4c(=O)n(-c5c(Cl)cc(Cl)cc5Cl)c5nc6ccccc6n5c4n3)cc2)CC1 [No. 77, 2-((4-(4-methyl-1-piperazinyl)phenyl)amino)-6-(2,4,6-trichlorophenyl)pyrimido[5′,4′:5,6]-pyrimido[1,2-a]benzimidazol-5(6H)-one]
COc1ccc(Cl)cc1-n1c(=O)c2cnc(Nc3ccc(N4CCN(C)CC4)cc3)nc2n2c3ccccc3nc12 [No. 76, 6-(5-chloro-2-(methyloxy)phenyl)-2-((4-(4-methyl-1-piperazinyl)phenyl)amino)pyrimido[5′,4′:5,6]-pyrimido[1,2-a]benzimidazol-5(6H)-one]
COc1cc(Nc2ncc3c(=O)n(-c4c(C)cccc4C)c4nc5ccccc5n4c3n2)ccc1OCCCN1CCN(C)CC1 [No. 20, 6-(2,6-dimethylphenyl)-2-((3-(methyloxy)-4-((3-(4-methyl-1-piperazinyl)propyl)oxy)phenyl)amino)-pyrimido[5′,4′:5,6]pyrimido[1,2-a]benzimidazol-5(6H)-one]

Same assay, conditions: read-out: activity in the LCK-HTRF Kinase Assay

IC50, < 1000 nM:
Cc1cccc(C)c1-n1c(=O)c2cnc(Nc3ccc(OCCN4CCN(C(C)C)CC4)c(F)c3)nc2n2c3ccccc3nc12 [No. 61, 6-(2,6-dimethylphenyl)-2-((3-fluoro-4-((2-(4-(1-methylethyl)-1-piperazinyl)ethyl)oxy)phenyl)amino)-pyrimido[5′,4′:5,6]pyrimido[1,2-a]benzimidazol-5(6H)-one]
Cc1cccc(C)c1-n1c(=O)c2cnc(Nc3ccc(N4CCN(CC(N)=O)CC4)cc3)nc2n2c3ccccc3nc12 [No. 50, 2-(4-(4-((6-(2,6-dimethylphenyl)-5-oxo-5,6-dihydropyrimido[5′,4′:5,6]pyrimido[1,2-a]-benzimidazol-2-yl)amino)phenyl)-1-piperazinyl)-acetamide]
Cc1cccc(C)c1-n1c(=O)c2cnc(Nc3ccc(N4CCN(Cc5cccc(C#N)c5)CC4)cc3)nc2n2c3ccccc3nc12 [No. 53, 3-((4-(4-((6-(2,6-dimethylphenyl)-5-oxo-5,6-dihydropyrimido[5′,4′:5,6]pyrimido[1,2-a]-benzimidazol-2-yl)amino)phenyl)-1-piperazinyl)-methyl)benzonitrile]
Cc1cccc(C)c1-n1c(=O)c2cnc(Nc3ccc(OCCCN4CCN(C)CC4)c(F)c3)nc2n2c3ccccc3nc12 [No. 7, 6-(2,6-dimethylphenyl)-2-((3-fluoro-4-((3-(4-methyl-1-piperazinyl)propyl)oxy)phenyl)amino)-pyrimido[5′,4′:5,6]pyrimido[1,2-a]benzimidazol-5(6H)-one]
Cc1cccc(C)c1-n1c(=O)c2cnc(Nc3ccc(C(=O)NCCN(C)C)cc3)nc2n2c3ccccc3nc12 [No. 71, N-(2-(dimethylamino)ethyl)-4-((6-(2,6-dimethylphenyl)-5-oxo-5,6-dihydropyrimido[5′,4′:5,6]pyrimido[1,2-a]-benzimidazol-2-yl)amino)benzamide]
COc1ccc(-n2c(=O)c3cnc(Nc4ccc(N5CCN(C)CC5)cc4)nc3n3c4ccccc4nc23)cc1 [No. 57, 6-(4-(methyloxy)phenyl)-2-((4-(4-methyl-1-piperazinyl)phenyl)amino)pyrimido[5′,4′:5,6]-pyrimido[1,2-a]benzimidazol-5(6H)-one]
Cc1cccc(C)c1-n1c(=O)c2cnc(Nc3ccc(OCCNC(C)C)c(Cl)c3)nc2n2c3ccccc3nc12 [No. 47, 2-((3-chloro-4-((2-((1-methylethyl)amino)ethyl)oxy)-phenyl)amino)-6-(2,6-dimethylphenyl)-pyrimido[5′,4′:5,6]pyrimido[1,2-a]benzimidazol-5(6H)-one]
COc1cccc(CN2CCN(c3ccc(Nc4ncc5c(=O)n(-c6c(C)cccc6C)c6nc7ccccc7n6c5n4)cc3)CC2)c1 [No. 52, 6-(2,6-dimethylphenyl)-2-((4-(4-((3-(methyloxy)-phenyl)methyl)-1-piperazinyl)phenyl)amino)-pyrimido[5′,4′:5,6]pyrimido[1,2-a]benzimidazol-5(6H)-one]
CN1CCN(c2ccc(Nc3ncc4c(=O)n(-c5ccc(F)cc5)c5nc6ccccc6n5c4n3)cc2)CC1 [No. 84, 6-(4-fluorophenyl)-2-((4-(4-methyl-1-piperazinyl)-phenyl)amino)pyrimido[5′,4′:5,6]pyrimido[1,2-a]-benzimidazol-5(6H)-one]
Cc1cccc(C)c1-n1c(=O)c2cnc(Nc3ccc(OCCC4CCN(C)CC4)cc3)nc2n2c3ccccc3nc12 [No. 24, 6-(2,6-dimethylphenyl)-2-((4-((2-(1-methyl-4-piperidinyl)ethyl)oxy)phenyl)amino)-pyrimido[5′,4′:5,6]pyrimido[1,2-a]benzimidazol-5(6H)-one]
Cc1cc(OCCCN2CCCCC2)ccc1Nc1ncc2c(=O)n(-c3c(C)cccc3C)c3nc4ccccc4n3c2n1 [No. 15, 6-(2,6-dimethylphenyl)-2-((2-methyl-4-((3-(1-piperidinyl)propyl)oxy)phenyl)amino)-pyrimido[5′,4′:5,6]pyrimido[1,2-a]benzimidazol-5(6H)-one]
COc1cc(Nc2ncc3c(=O)n(-c4c(C)cccc4C)c4nc5ccccc5n4c3n2)ccc1OCCNC(C)C [No. 43, 6-(2,6-dimethylphenyl)-2-((4-((2-((1-methylethyl)-amino)ethyl)oxy)-3-(methyloxy)phenyl)amino)-pyrimido[5′,4′:5,6]pyrimido[1,2-a]benzimidazol-5(6H)-one]
Cc1cccc(C)c1N1C(=O)c2cnc(Nc3ccc(N4CCN(C)CC4)cc3)nc2N2CCN=C21 [No. 58, 6-(2,6-dimethylphenyl)-2-((4-(4-methyl-1-piperazinyl)phenyl)amino)-8,9-dihydroimidazo[1,2-a]pyrimido[5,4-e]pyrimidin-5(6H)-one]
Cc1cccc(C)c1-n1c(=O)c2cnc(Nc3ccc(N4CCN(Cc5cccc(Cl)c5)CC4)cc3)nc2n2c3ccccc3nc12 [No. 51, 2-((4-(4-((3-chlorophenyl)methyl)-1-piperazinyl)-phenyl)amino)-6-(2,6-dimethylphenyl)-pyrimido[5′,4′:5,6]pyrimido[1,2-a]benzimidazol-5(6H)-one]
Cc1cccc(C)c1-n1c(=O)c2cnc(Nc3cccc(OCCCN4CCCCC4)c3)nc2n2c3ccccc3nc12 [No. 36, 6-(2,6-dimethylphenyl)-2-((3-((3-(1-piperidinyl)-propyl)oxy)phenyl)amino)pyrimido[5′,4′:5,6]-pyrimido[1,2-a]benzimidazol-5(6H)-one]
CCN(CC)CCN(C)C(=O)c1cccc(Nc2ncc3c(=O)n(-c4c(C)cccc4C)c4nc5ccccc5n4c3n2)c1 [No. 66, N-(2-(diethylamino)ethyl)-3-((6-(2,6-dimethylphenyl)-5-oxo-5,6-dihydropyrimido[5′,4′:5,6]pyrimido[1,2-a]-benzimidazol-2-yl)amino)-N-methylbenzamide]
COc1cc(Nc2ncc3c(=O)n(-c4c(C)cccc4C)c4nc5ccccc5n4c3n2)ccc1OCCN1CCN(C(C)C)CC1 [No. 62, 6-(2,6-dimethylphenyl)-2-((4-((2-(4-(1-methylethyl)-1-piperazinyl)ethyl)oxy)-3-(methyloxy)phenyl)-amino)pyrimido[5′,4′:5,6]pyrimido[1,2-a]-benzimidazol-5(6H)-one]
COc1cc(Nc2ncc3c(=O)n(-c4c(C)cccc4C)c4nc5ccccc5n4c3n2)ccc1OC[C@H]1CCCN1 [No. 55, 6-(2,6-dimethylphenyl)-2-((3-(methyloxy)4-(((2R)-2-pyrrolidinylmethyl)oxy)phenyl)amino)-pyrimido[5′,4′:5,6]pyrimido[1,2-a]benzimidazol-5(6H)-one]
Cc1cc(OCCCN2CCN(C)CC2)ccc1Nc1ncc2c(=O)n(-c3c(C)cccc3C)c3nc4ccccc4n3c2n1 [No. 16, 6-(2,6-dimethylphenyl)-2-((2-methyl-4-((3-(4-methyl-1-piperazinyl)propyl)oxy)phenyl)amino)-pyrimido[5′,4′:5,6]pyrimido[1,2-a]benzimidazol-5(6H)-one]
COc1cc(Nc2ncc3c(=O)n(-c4c(C)cccc4C)c4nc5ccccc5n4c3n2)ccc1N1CCNCC1 [No. 37, 6-(2,6-dimethylphenyl)-2-((3-(methyloxy)-4-(1-piperazinyl)phenyl)amino)pyrimido[5′,4′:5,6]-pyrimido[1,2-a]benzimidazol-5(6H)-one]
Cc1cc(N2CCN(C)CC2)ccc1Nc1ncc2c(=O)n(-c3c(C)cccc3C)c3nc4ccccc4n3c2n1 [No. 13, 6-(2,6-dimethylphenyl)-2-((2-methyl-4-(4-methyl-1-piperazinyl)phenyl)amino)pyrimido[5′,4′:5,6]-pyrimido[1,2-a]benzimidazol-5(6H)-one]
